Measurements published in patent US20120232066A1, “COMPOSITIONS FOR REDUCING RISK OF ADVERSE EVENTS CAUSED BY DRUG-DRUG INTERACTIONS” (priority 2011, published 2012).

Tests used:
[1] = Oral administration of Compound AM-2 and Compound 109 to rats; amphetamine in plasma; type: in vivo, rat; conditions: suppressing Cmax and delaying Tmax
Source text: Table 10 and FIG. 10 provide amphetamine exposure results for rats administered with Compound AM-2 and with or without a co-dose of trypsin inhibitor.

[2] = Oral administration of Compound KC-17 co-dosed with Compound 109 to rats; oxycodone in plasma; type: in vivo, rat; conditions: KC-17 50 mg/kg
Description: At specified time points, blood samples were drawn, harvested for plasma via centrifugation at 5,400 rpm at 4° C. for 5 min, and 100 microliters (μl) plasma transferred from each sample into a fresh tube containing 2 μl of 50% formic acid. The tubes were vortexed for 5-10 seconds, immediately placed in dry ice, and then stored in a −80° C. freezer until analysis by HPLC/MS.

[3] = Oral administration of Compound PC-1 and SBTI trypsin inhibitor to rats; hydromorphone in blood; conditions: for Cmax (ng/mL HM): hydromorphone in rat blood, PO PC-1 20 mg/kg
Description: At specified time points, blood samples were drawn, quenched into methanol, centrifuged at 14,000 rpm @ 4° C., and stored at −80° C. until analysis by high performance liquid chromatography/mass spectrometry (HPLC/MS).

N=C(N)c1ccc2cc(OC(=O)c3ccc(N=C(N)N)cc3)ccc2c1 [Compound 109, 6-carbamimidoylnaphthalen-2-yl 4-(diaminomethyleneamino)benzoate]
effect of Compound 109 on amphetamine release from Compound AM-2 [1]: ability to attenuate | effect of Compound 109 on oxycodone release from Compound KC-17 [2]: attenuate release of oxycodone by prodrugs of the embodiments

CC(=O)NC(CCCNC(=N)N)C(=O)NCCN(C)C(=O)Oc1ccc2c3c1OC1C(=O)CCC4C(C2)N(C)CCC314 (stereo not drawn) [Compound PC-1, Hydromorphone 3-(N-methyl-N-(2-N′-acetylarginylamino)) ethylcarbamate]
Cmax (ng/mL HM) ([3]; SBTI 0 mg/kg): 16.5 ± 5.3 ng/mL | Cmax (ng/mL HM) ([3]; SBTI 10 mg/kg): 8.9 ± 1.8 ng/mL | Cmax (ng/mL HM) ([3]; SBTI 100 mg/kg): 6.0 ± 4.0 ng/mL | Cmax (ng/mL HM) ([3]; SBTI 500 mg/kg): <5 ng/mL | Cmax (ng/mL HM) ([3]; SBTI 1000 mg/kg): <5 ng/mL

B1: SBTI: trypsin inhibitor from Glycine max (soybean) (Catalog No. 93620, ~10,000 units per mg, Sigma-Aldrich) (protein, UniProt P01070 25-205, looked up)
Trypsin inhibitor A: DFVLDNEGNPLENGGTYYILSDITAFGGIRAAPTGNERCPLTVVQSRNELDKGIGTIISSPYRIRFIAEGHPLSLKFDSFAVIMLCVGIPTEWSVVEDLPEGPAVKIGENKDAMDGWFRLERVSDDEFNNYKLVFCPQQAEDDKCGDIGISIDHDDGTRRLVVSKNKPLVVQFQKLDKESL
effect of SBTI on hydromorphone release from Compound PC-1 into blood ([3]; rats PO, PC-1 20 mg/kg and 10, 100, 500 or 1000 mg/kg SBTI): suppresses Cmax and delays Tmax | attenuation of Compound PC-1's ability to release hydromorphone ([3]; rats PO, PC-1 20 mg/kg, at higher SBTI concentrations): approximately 100%
